This assay addresses p38 map kinase (Homo sapiens, UniProt Q16539). Kind of assay: P38 map kinase assay (SPA). It is filed as biochemical. As to conditions: SPA [33-P] assay, biotinylated myelin basic protein substrate 2.5 μM, 10 μM ATP, 90 min 30° C. The text has this: The assay makes use of the serine/threonine protein kinase SPA [33-P]+assay kit from Amersham Pharmacia Biotech. The assay is a homogeneous technique using SPA technology for the quantification of serine threonine kinase activity.
It is based on the p38 map kinase catalysed transfer of the γ-phosphate group of the [γ-^33P] ATP to the substrate, biotinylated myelin basic protein (MBP). The resulting [^33P]-labelled biotinylated product is trapped on a PVT SPA bead containing scintillant which has been surface coated with streptavidin.
The beads are allowed to settle to eliminate high background, and therefore only ^33P labelled product attached to the SPA bead is detected.
The assay is carried out in the presence and absence of test compounds to determine their effect on p38 map kinase activity.
A Test Protocol is as Follows:
• 1. SPA assay kit (Amersham). Components: • Assay buffer (store frozen) • Stop solution (store frozen) • Streptavidin coated SPA beads—reconstitute with 5 mls of PBS. (50 mg/ml). (Store in fridge) • 2. p38 map kinase enzyme SCRD (500 μg/ml)−aliquoted in 1.5 mls. • dilute 1:10 to 50 μg/ml • 1 plate: −110 μl (stock 500 μg/ml)+[…] PBS. • 3. Assay reagent: • for 1 plate: −504 μl Assay buffer (500 Mm MOPS pH7.2, 10 μM ATP, • 50 mM MgCl2, 25 μM biotinylated myelin basic protein (MBP)). • 2513.4 μl Water • 1.1 μl 33-p-ATP ([…]) (on activity date/adjust for activity date) • 4.534 μl×10^-2M ATP in water • 4. Stop solution: • for 1 plate: −265.92 μl streptavidin coated beads (50 mg/ml) • 1651.68 μl stop buffer (500 μM ATP, 50 mM EDTA 1% Triton X-100) • 7084.32 μl PBS. • 1. Add 10 μcompound Dilutions (5× final conc) Test wells. • 2. Add 10 μl 12.5% DMSO to control/blank wells. • 3. Add 10 μl enzyme (50 μg/ml)−final conc 500 ng/well • 4. Add 10 μPBS to blank wells. • 5. Add 30 μL of assay reagent to each well. (final conc 10 μM ATP, 2.5 μM substrate) • 6. Mix well on plate shaker • 7. Incubate 90 min (30° C.) • 8. Add 75 μl of stop solution to each well (final conc 55 μM ATP) • 9. Spin plate: −3 min/1600 rpm/20° C. (alternatively leave to settle overnight) • 10. Read in Microbeta, Protocol SPA paralux 3.

Sequence of p38 map kinase (Q16539 whole entry): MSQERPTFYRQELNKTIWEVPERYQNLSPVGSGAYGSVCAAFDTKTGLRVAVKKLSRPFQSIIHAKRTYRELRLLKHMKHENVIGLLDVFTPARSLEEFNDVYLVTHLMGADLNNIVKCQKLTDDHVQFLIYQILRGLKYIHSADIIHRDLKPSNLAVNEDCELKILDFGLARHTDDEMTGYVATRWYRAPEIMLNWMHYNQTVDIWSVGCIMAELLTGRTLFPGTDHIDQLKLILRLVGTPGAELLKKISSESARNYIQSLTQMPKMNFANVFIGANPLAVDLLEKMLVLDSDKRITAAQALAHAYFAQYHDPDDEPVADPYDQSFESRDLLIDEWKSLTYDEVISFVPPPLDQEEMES

A word on the IC50: it is the concentration that gives 50% inhibition. A lower IC50 goes with higher potency. Consider `O=C(c1ccccc1)c1ccc(=O)n2c1[nH]c1ccccc12` [Example 1, 4-Benzoylpyrido[1,2-a]benzimidazol-1(5H)-one], for which the IC50 worked out at 518 nM.
With `Cc1[nH]c2c(C(=O)c3ccc(F)cc3)ccc(=O)n2c1C` [Example 2, 8-(4-Fluorobenzoyl)-2,3-dimethylimidazo[1,2-a]pyridin-5(1H)-one] the figure was 329 nM; with `Cc1[nH]c2c(C(=O)c3ccccc3F)ccc(=O)n2c1C` [Example 3, 8-(2-Fluorbenzoyl)-2,3-dimethylimidazo[1,2-a]pyridin-5(1H)-one], 235 nM; with `O=C(c1ccccc1)c1ccc(=O)n2c3c([nH]c12)CCCC3` [Example 5, 4-Benzoyl-6,7,8,9-tetrahydropyrido[1,2-a]benzimidazol-1(5H)-one], 111 nM.
Under `O=C(c1ccc(F)cc1F)c1ccc(=O)n2c3c([nH]c12)CCCC3` [Example 38, 4-(2,4-Difluorobenzoyl)-6,7,8,9-tetrahydropyrido[1,2-a]benzimidazol-1(51)-one] stands 96 nM.

For the origin of these results see patent US6984646B2, “Imidazopyridinones as p38 map kinase inhibitors” (Bayer Healhcare AG, priority 2001, dated 2006).
